Measured values reported in patent US8927538B2, “Carbazole linked pyrrolo[2,1-c][1,4]benzodiazefine hybrids as potential anticancer agents and process for the preparation thereof” (Council of Scientific & Industrial Research, priority 2010, dated 2015).

Tests used:
[1] = tested on: A498; test: NCI SRB cytotoxicity, A498; type: cell-based, human; conditions: Renal A498, 48 hrs exposure
Text: (§1) The C8-linked carbazole-PBD hybrids have been tested against sixty human tumour cell lines derived from nine cancer types (leukemia, non-small cell lung cancer, colon cancer, CNS cancer, melanoma, ovarian cancer, renal cancer, prostate cancer and breast cancer) as per NCI protocol, For each compound, dose response curves for individual cell lines have been measured at a minimum of five concentrations at 10 fold dilutions. A protocol of 48 hrs continuous drug exposure has been used, and a sulforhodamine B (SRB) protein assay was used to estimate cell viability or growth. The concentration for 50% cell growth inhibition (GI50), total cell growth inhibition (TGI, 0% growth) and 50% cell death (LC50, […]) compared with the control has been calculated (Table-3).
(§2) Compounds 6c and 14a have been evaluated for in vitro cytotoxicity in sixty cell lines from nine human cancer types of lung (Hop-62, NCI-H226, NCI-H522), leukemia (K-562, SR), colon (HCT-116, HCT-15, HCC-2998), CNS(SF-539), melanoma (SK-MEL-5, UACC-62, M14), ovarian (IGROV1), renal (A498), prostate (PC3) breast (BT-549, MDA-MB-435, HS578T) origin. The results are expressed as percent of cell growth determined relative to that of untreated control cells (Table 1).

[2] = tested on: IGROV1; test: NCI SRB cytotoxicity, IGROV1; type: cell-based, human; conditions: Ovarian IGROV1, 48 hrs exposure
Text: as §1, §2

[3] = tested on: CAKI-1; test: NCI SRB cytotoxicity, CAKI-1; type: cell-based, human; conditions: Renal CAKI-1, 48 hrs exposure
Text: as §1, §2

[4] = tested on: HOP-62; test: NCI SRB cytotoxicity, HOP-62; type: cell-based, human; conditions: Non-small cell lung HOP-62, 48 hrs exposure
Text: as §1, §2

[5] = tested on: HS 578T; test: NCI SRB cytotoxicity, HS 578T; type: cell-based, human; conditions: Breast HS 578T, 48 hrs exposure
Text: as §1, §2

[6] = tested on: CNS cancer cell lines; test: NCI SRB cytotoxicity, CNS panel; type: cell-based, human; conditions: average of six to eight cell lines
Text: as §1, §2

[7] = tested on: Renal cancer cell lines; test: NCI SRB cytotoxicity, renal panel; type: cell-based, human; conditions: average of six to eight cell lines
Text: as §1, §2

[8] = tested on: breast cancer cell lines; test: NCI SRB cytotoxicity, breast panel; type: cell-based, human; conditions: average of six to eight cell lines
Text: as §1, §2

[9] = tested on: UACC-257; test: NCI SRB cytotoxicity, UACC-257; type: cell-based, human; conditions: Melanoma UACC-257, 48 hrs exposure
Text: as §1, §2

[10] = tested on: EKVX; test: NCI SRB cytotoxicity, EKVX; type: cell-based, human; conditions: Non-small cell lung EKVX, 48 hrs exposure
Text: as §1, §2

[11] = tested on: Non small cell lung cancer cell lines; test: NCI SRB cytotoxicity, non-small cell lung panel; type: cell-based, human; conditions: average of six to eight cell lines
Text: as §1, §2

[12] = tested on: HCT-116; test: NCI SRB cytotoxicity, HCT-116; type: cell-based, human; conditions: Colon HCT-116, 48 hrs exposure
Text: as §1, §2

[13] = tested on: SNB-75; test: NCI SRB cytotoxicity, SNB-75; type: cell-based, human; conditions: CNS SNB-75, 48 hrs exposure
Text: as §1, §2

[14] = tested on: Leukemia cancer cell lines; test: NCI SRB cytotoxicity, leukemia panel; type: cell-based, human; conditions: average of six to eight cell lines
Text: as §1, §2

[15] = tested on: COLO 205; test: NCI SRB cytotoxicity, COLO 205; type: cell-based, human; conditions: Colon COLO 205, 48 hrs exposure
Text: as §1, §2

[16] = tested on: SK-MEL-28; test: NCI SRB cytotoxicity, SK-MEL-28; type: cell-based, human; conditions: Melanoma SK-MEL-28, 48 hrs exposure
Text: as §1, §2

[17] = tested on: HL-60(TB); test: NCI SRB cytotoxicity, HL-60(TB); type: cell-based, human; conditions: Leukemia HL-60(TB), 48 hrs exposure
Text: as §1, §2

[18] = tested on: prostate cancer cell lines; test: NCI SRB cytotoxicity, prostate panel; type: cell-based, human; conditions: average of cell lines
Text: as §1, §2

[19] = tested on: MDA-MB-; test: NCI SRB cytotoxicity, MDA-MB-; type: cell-based, human; conditions: Breast MDA-MB-, 48 hrs exposure
Text: as §1, §2

[20] = tested on: OVCAR-3; test: NCI SRB cytotoxicity, OVCAR-3; type: cell-based, human; conditions: Ovarian OVCAR-3, 48 hrs exposure
Text: as §1, §2

[21] = tested on: CCRF-CEM; test: NCI SRB cytotoxicity, CCRF-CEM; type: cell-based, human; conditions: Leukemia CCRF-CEM, 48 hrs exposure
Text: as §1, §2

[22] = tested on: UACC-62; test: NCI SRB cytotoxicity, UACC-62; type: cell-based, human; conditions: Melanoma UACC-62, 48 hrs exposure
Text: as §1, §2

[23] = tested on: duplex-form calf thymus DNA (CT-DNA); test: Thermal denaturation studies (DNA binding); conditions: [PBD]:[DNA] molar ratio 1:5, CT-DNA 100 μM, ligand 20 μM; for ΔTm after incubation at 37 °C for 0 h: pH 7.00, 0 h; for ΔTm after incubation at 37 °C for 18 h: pH 7.00, 18 h
Method: Compounds have been subjected to thermal denaturation studies with duplex-form calf thymus DNA (CT-DNA) using a modification of a reported procedure. Working solutions in aqueous buffer ([…] NaH2PO4/Na2HPO4, 1 mM Na2EDTA, pH 7.00±0.01) containing CT-DNA (100 μM in phosphate) and the PBD (20 μM) have been prepared by addition of concentrated PBD solutions in DMSO to obtain a fixed [PBD]/[DNA] molar ratio of 1:5. The DNA-PBD solutions have been incubated at 37° C. for 0 and 18 hrs prior to analysis. Samples have been monitored at 260 nm using a Beckman DU-800 spectrophotometer fitted with high performance temperature controller, and heated at 1° C. min^−1 in the 40-110° C. range. DNA helix→coil transition temperatures (Tm) have been obtained from the maxima in the d(A260)/dT derivative plots. Drug-induced alterations in DNA melting behavior are given by: […]Tm=Tm(DNA+PBD)-Tm(DNA alone), where the Tm value for the PBD-free CT-DNA is 68.5 […]0.01.
The DNA-binding for these C8-linked carbazole-PBD hybrids has been examined by thermal denaturation studies using calf thymus (CT) DNA. […] Data for 6a, 6b, 6c, 14a, 14b, and 14d and DC-81 are included in Table 5 for comparison.

[24] = tested on: ACHN; test: NCI SRB cytotoxicity, ACHN; type: cell-based, human; conditions: Renal ACHN, 48 hrs exposure
Text: as §1, §2

[25] = tested on: MDA-MB-435; test: NCI SRB cytotoxicity, MDA-MB-435; type: cell-based, human; conditions: Breast MDA-MB-435, 48 hrs exposure
Text: as §1, §2

[26] = tested on: Melanoma cancer cell lines; test: NCI SRB cytotoxicity, melanoma panel; type: cell-based, human; conditions: average of six to eight cell lines
Text: as §1, §2

[27] = tested on: HOP-92; test: NCI SRB cytotoxicity, HOP-92; type: cell-based, human; conditions: Non-small cell lung HOP-92, 48 hrs exposure
Text: as §1, §2

COc1cc2c(cc1OCCCN1CCN(CCCn3c4ccccc4c4ccccc43)CC1)N=C[C@@H]1CCCN1C2=O [Compound 14a]
GI50 [1]: 170 nM
GI50 [2]: < 10 nM
GI50 [3]: 120 nM
GI50 [4]: 80 nM
GI50 [5]: 160 nM
Log10 GI50 [6]: −6.96 mol/L
Log10 LC50 (concentration causing 50% lethality) [6]: −5.67 mol/L
Log10 GI50 [7]: −6.72 mol/L
Log10 LC50 (concentration causing 50% lethality) [7]: −5.61 mol/L
Log10 GI50 [8]: −6.96 mol/L
Log10 LC50 (concentration causing 50% lethality) [8]: −5.59 mol/L
GI50 [9]: 150 nM
GI50 [10]: 140 nM
Log10 GI50 [11]: −6.96 mol/L
Log10 LC50 (concentration causing 50% lethality) [11]: −5.62 mol/L
GI50 [12]: 60 nM
GI50 [13]: 150 nM
Log10 GI50 [14]: −7.55 mol/L
GI50 [15]: 70 nM
GI50 [16]: 60 nM
GI50 [17]: 30 nM
Log10 GI50 [18]: −7.42 mol/L
Log10 LC50 (concentration causing 50% lethality) [18]: −5.59 mol/L
GI50 [19]: 950 nM
GI50 [20]: 69 nM
GI50 [21]: 20 nM
GI50 [22]: 150 nM
ΔTm after incubation at 37 °C for 0 h [23]: 7.5 °C
ΔTm after incubation at 37 °C for 18 h [23]: 8.2 °C
GI50 [24]: 250 nM
GI50 [25]: < 10 nM
Log10 GI50 [26]: −6.91 mol/L
Log10 LC50 (concentration causing 50% lethality) [26]: −6.06 mol/L
GI50 [27]: 270 nM

COc1cc2c(cc1OCCCCCn1c3ccccc3c3ccccc31)N=C[C@@H]1CCCN1C2=O [Compound 6c, 7-Methoxy-8-[5-(9H-9-carbazoly)pentyloxy]-(11aS)-1,2,3,11a-tetrahydro-5H-Pyrrolo[2,1-c][1,4]benzodiazepin-5-one]
GI50 [1]: 1770 nM
GI50 [2]: 2080 nM
GI50 [3]: 1930 nM
GI50 [4]: 1800 nM
GI50 [5]: 1970 nM
Log10 GI50 [6]: −5.76 mol/L
Log10 LC50 (concentration causing 50% lethality) [6]: −4.97 mol/L
Log10 LC50 (concentration causing 50% lethality) [7]: −4.99 mol/L
Log10 GI50 [8]: −5.67 mol/L
Log10 LC50 (concentration causing 50% lethality) [8]: −4.47 mol/L
GI50 [9]: 2290 nM
GI50 [10]: 5270 nM
Log10 GI50 [11]: −5.64 mol/L
Log10 LC50 (concentration causing 50% lethality) [11]: −4.78 mol/L
GI50 [12]: 1650 nM
GI50 [13]: 1050 nM
Log10 GI50 [14]: −5.56 mol/L
Log10 LC50 (concentration causing 50% lethality) [14]: −4.18 mol/L
GI50 [15]: 2110 nM
GI50 [16]: 1800 nM
GI50 [17]: 1720 nM
Log10 GI50 [18]: −5.64 mol/L
Log10 LC50 (concentration causing 50% lethality) [18]: −4.50 mol/L
GI50 [19]: 2140 nM
GI50 [20]: 1880 nM
GI50 [21]: 1970 nM
GI50 [22]: 1860 nM
ΔTm after incubation at 37 °C for 0 h [23]: 4.1 °C
ΔTm after incubation at 37 °C for 18 h [23]: 4.9 °C
GI50 [24]: 1740 nM
GI50 [25]: 1730 nM
Log10 GI50 [26]: −5.71 mol/L
Log10 LC50 (concentration causing 50% lethality) [26]: −4.74 mol/L
GI50 [27]: 1310 nM
